Consider three compounds from US20040054292A1, “Non-invasive apparatus system for monitoring autonomic nervous system and uses thereof” (INDUSTRIAL TECHNOLOGY RESEARCH INSTITUTE, priority 2002, published 2004).

Assay [1] has as its system autonomic nervous system. Kind of assay: Heart rate variability (ECG spectral analysis) in apoplectic patients complicated with hypertension before and after drug. Particulars: labetalol 12.5 mg injected. It counts as in vivo, human. On the procedure:
In this human experiment, the non-invasive apparatus system of the invention was used to monitor the autonomic nervous system functional change side effects caused by drugs. Four (two females and two males) apoplectic patients complicated with hypertension at the age of 77.3±8.8 (± means standard deviation) were chosen in the study. The patients were divided into two groups: (1) the control group and (2) the labetalol group (the experiment group). All patients, 5 minutes before administrating the drug, were classified as the control group. After being treated/injected with labetalol (12.5 mg) for 5 minutes, the patients became the labetalol group. Labetalol is an α and β combined epinephrine antagonist (a sympathetic hormone epinephrine blocker) for lowering blood pressure. Treatment and analysis of the electrocardiograph (ECG) were conducted similarly to those recited in Example 1, except that the ranges of the frequencies were determined based on those of humans. The power of each frequency range comprising variance, low frequency power (0.04-0.15 Hz) and high frequency power (0.15-0.4 Hz) was quantified by integration. Parameters of the ratios of low frequency/high frequency (LF/HF ratio) and low frequency rate (LF%) were also calculated at the same time. The values of variance, LF, HF and LF/HF were logarithmically transformed to correct the distribution bias. All data were presented as mean ±SD, and the differences between the experimental and control groups were examined by paired t-test, wherein a value of p<0.05 is considered as the data having a statistic meaning. […] Variance and HF responses were uncertain (P>0.05). In light of the results of the experiment, it has been proven that non-invasive apparatus system of the invention can be used in patients for monitoring autonomic nervous system functional change side effects caused by drugs.

Assay [2] deals with autonomic nervous system. The assay can be described thus: Heart rate variability spectral analysis in anesthetized rats after intravenous drug. Particulars: for high frequency (index of parasympathetic nervous activity): 0.5 to 2.4 Hz. The format is in vivo, Sprague-Dawley rats. On the procedure:
Matured male Sprague-Dawley rats (weighed 250-350 g) were first sensitizing anesthetized by intraperitoneal injecting of pentobarbital sodium (50 mg/kg) and then were general anesthetized by continuously infusion with pentobarbital sodium (15 mg/kg). The rats were intubated in both femoral veins, wherein one was used for continuously dropping anesthesia and the other was used for delivering testing drug. The rates were tracheal intubated to connect with a respirator (Havard 683) for mechanical respiration. In addition, the skeletal muscle of the whole body of the animals was anesthetized by administrating pancuronium. In order to record the artery pressure, the intubation at the right femoral artery was linked to a PE-50 tube connected with a syringe pre-filled with heparinized saline (200 unit/mL). The artery pressure and heart rate were recorded by a pressure sensory machine ([…], Hewlett-Packard) in the tube. The artery pressure was converted by a pressure converter (Statham, P231D, frequency range: DC to 200 Hz), amplified by a pre-amplifier (Gould, G-13-4615-52), and then filtered (DC to 100 Hz). Electrocardiograph signal was recorded by a second guided electrocardiograph recorder. The signal was amplified by a pre-amplifier(Gould G-20-4615-58) and then filtered (3-300 Hz). At the same time, the signal and the artery pressure were caught by a 12 bit analog-digital converter in an analyzing computer in a frequency of 256 points per second in every channel. The computer used was an IBM-PC compatible type comprising an Intel 80486 micro processor and a 4 MB memory. The Heart rate signals (digital blood pressure signal or electrocardiograph signal) were simultaneously and continuously on-line analyzed by the Fast Fourier Transform method, and the power of each special frequency interval was quantified by integration. High frequency (frequency between 0.5 to 2.4 Hz) in spectrum was considered as an index of parasympathetic nervous function, low frequency % [=100× low frequency/(high frequency+low frequency)] was considered as an index of sympathetic nervous function, and the means of heart rate period and variance were considered as references. The rats were divided into three groups, and each group had 4 to 6 animals. A group of animals were intravenously administered with yohimbine (1 mg/kg), which is a central nervous system α2 receptor antagonist being able to stimulate sympathetic nervous functions and inhibit parasympathetic nervous functions. Another group of animals was intravenously administered with guanabenz (100 μg/kg), which is a central nervous system α2 receptor agonist being able to inhibit sympathetic nervous functions and stimulate parasympathetic nervous functions. The animals administered with saline of the same volume was classified as a controlled group. Prior to applying the drugs, basal blood pressure, mean value of heart rate period and spectral analysis were measured for about 10 minutes, and after the drugs being intravenously administered, the effects of the drugs were measured for 30 minutes. […] Therefore, low frequency % is shown to be a valid index of the sympathetic nervous activity, and high frequency an index of the parasympathetic nervous activity, respectively. […]

Setting [3] is: 5 minutes after vs before, P>0.05, FIG. 4.
[4] abbreviates: 5 minutes after vs before, p<0.05, FIG. 4.
The mark [5] stands for this setting: yohimbine 1 mg/kg intravenously, FIG. 3.
Setting [6] is: guanabenz 100 μg/kg intravenously, FIG. 2.
[7] abbreviates: guanabenz 100 μg/kg intravenously, measured for 30 minutes after drug, FIG. 2.

On to `CC(CCc1ccccc1)NCC(O)c1ccc(O)c(C(N)=O)c1` (stereo not drawn) [labetalol], for which the heart rate period entry in the assay with autonomic nervous system [1] (5 minutes after vs 5 minutes before, four patients, p<0.05, FIG. 4) is listed as “increased”. Further, in the assay with autonomic nervous system [1] (setting [3]), the HF response entry is on record as “uncertain” and the Variance response entry is reported as “uncertain”. In the assay on autonomic nervous system [1] (setting [4]), the “LF % (index of heart sympathetic nervous activity)” value is “decreased” and the “LF/HF (index of heart sympathetic nervous activity)” value is on record as “decreased”.

With `COC(=O)[C@@H]1[C@H]2C[C@H]3c4[nH]c5ccccc5c4CCN3C[C@@H]2CC[C@@H]1O` [yohimbine], in the assay with autonomic nervous system [2] (setting [5]), the “high frequency (index of parasympathetic nervous activity)” value was “lowered”, the heart rate period entry is “lowered” and the “low frequency % (index of sympathetic nervous activity)” value was “tremendously increased”.

As for `N=C(N)N/N=C/c1c(Cl)cccc1Cl` [guanabenz], in the assay on autonomic nervous system [2] (setting [6]), the “high frequency (index of parasympathetic nervous activity)” value is given as “increased” and the “low frequency % (index of sympathetic nervous activity)” value was “tremendously lowered”. For the same compound, in the assay on autonomic nervous system [2] (setting [7]), the heart rate period entry is on record as “increased” and the heart rate variability result is reported as “increased”.
